Publication PMC6152678, “In Vitro Comparative Study of the Inhibitory Effects of Mangiferin and Its Aglycone Norathyriol towards UDP-Glucuronosyl Transferase (UGT) Isoforms” (Molecules : A Journal of Synthetic Chemistry and Natural …, 2017)
“And” between values parts separate entries of the source, which are not always exact repeats. Equal entries are not always repeated. Where two headings read alike, the source gives them in different places.

Experiments:
[1] = set-up: method as in PMID 27130074; conditions: after administration of 200 mg/kg MGF; cited from earlier work
[2] = rat, cited from earlier work
[3] = set-up: method as in PMID 26434292; conditions: human, oral 0.9 g mangiferin, cited from earlier work
UGT2B4 = target: T1, UGT2B4 (Homo sapiens, UniProt P06133); experiment: Inhibition of recombinant UGT-catalyzed 4-MU glucuronidation; assay type: biochemical; conditions: pH 7.4, probe 4-methylumbelliferone (4-MU), 1000 μM, 100 μM compound, 4-MU probe substrate, negative = activation
T1 construct: purchased BD Gentest Corp. (Woburn, MA, USA); host or cells: baculovirus-infected insect cells
T1 sequence (P06133 24-528): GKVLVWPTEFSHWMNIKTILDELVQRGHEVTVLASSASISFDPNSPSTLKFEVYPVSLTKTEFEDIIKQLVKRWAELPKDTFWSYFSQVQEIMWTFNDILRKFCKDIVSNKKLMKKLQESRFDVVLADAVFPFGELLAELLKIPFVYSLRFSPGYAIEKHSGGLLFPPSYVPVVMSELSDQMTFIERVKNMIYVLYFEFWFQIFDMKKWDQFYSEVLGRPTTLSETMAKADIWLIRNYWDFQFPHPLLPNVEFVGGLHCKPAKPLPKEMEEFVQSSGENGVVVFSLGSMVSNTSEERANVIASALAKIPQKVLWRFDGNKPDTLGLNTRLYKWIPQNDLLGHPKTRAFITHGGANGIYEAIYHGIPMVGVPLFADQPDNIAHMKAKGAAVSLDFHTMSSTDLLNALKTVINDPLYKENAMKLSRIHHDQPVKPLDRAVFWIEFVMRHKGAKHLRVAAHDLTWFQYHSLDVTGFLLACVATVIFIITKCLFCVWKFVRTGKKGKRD

UGT2B15 = target: T2, UGT2B15 (Homo sapiens, UniProt P54855); experiment: as above; assay type: biochemical; conditions: pH 7.4, probe 4-methylumbelliferone (4-MU), 250 μM, 100 μM compound, 4-MU probe substrate, negative = activation
T2 construct: purchased BD Gentest Corp. (Woburn, MA, USA); host or cells: baculovirus-infected insect cells
T2 sequence (P54855 24-530): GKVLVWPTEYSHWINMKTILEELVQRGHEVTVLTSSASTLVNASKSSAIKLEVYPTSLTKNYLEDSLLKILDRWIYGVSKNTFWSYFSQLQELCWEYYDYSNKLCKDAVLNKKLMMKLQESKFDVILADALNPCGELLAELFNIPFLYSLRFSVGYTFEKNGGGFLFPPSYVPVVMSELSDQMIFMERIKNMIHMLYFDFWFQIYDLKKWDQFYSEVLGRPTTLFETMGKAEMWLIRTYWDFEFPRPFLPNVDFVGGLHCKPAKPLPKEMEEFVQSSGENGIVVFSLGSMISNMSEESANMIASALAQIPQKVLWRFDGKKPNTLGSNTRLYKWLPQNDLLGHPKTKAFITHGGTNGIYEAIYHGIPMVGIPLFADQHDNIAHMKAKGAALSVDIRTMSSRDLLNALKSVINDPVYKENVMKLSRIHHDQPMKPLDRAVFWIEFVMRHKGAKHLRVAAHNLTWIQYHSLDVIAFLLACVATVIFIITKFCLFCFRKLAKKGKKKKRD

inhibition at 120 min, 100 µM (UGT2B4) [%] | inhibition at 120 min, 100 µM (UGT2B15) [%] | Compound | Cmax [1] [ng/mL] | maximum concentration in the plasma ([2]; oral MGF 70mg/kg) | maximum concentration in the plasma ([2]; oral MGF 120 mg/kg) | concentration in plasma reached ([3]; about 1 h) | time at which the plasma concentration was reached [3] | AUCNTR/AUCMGF [1] [%]
-61.9 | 8.9 | O=c1c2cc(O)c(O)cc2oc2cc(O)c([C@@H]3O[C@H](CO)[C@@H](O)[C@H](O)[C@H]3O)c(O)c12 [MGF, 1,3,6,7-tetrahydroxyxanthone-C-2-β-D-glucoside] | 202.58 | 0.19 μg/mL and 0.45 μM | 8.13 ± 1.96 μg/mL and 19.2 ± 4.64 μM | 38.64 ± 6.75 ng/mL and 0.091 ± 0.016 μM | about 1 h | –
-5.5 | 46.3 | O=c1c2cc(O)c(O)cc2oc2cc(O)cc(O)c12 [NTR, 1,3,6,7-tetrahydroxyxanthone] | < 3 | – | – | – | – | < 3
